In ChEMBL document CHEMBL1135808, “A new type of mixed anhydride and its applications to the synthesis of 7-substituted 8-chloro-5,5-dioxoimidazo[1,2-b][1,4,2]benzodithiazines with in vitro antitumor activity” (2002):

Assays:
T47D = assay: In vitro total growth inhibition against breast cancer […] cell lines was reported.; type: functional; details: Homo sapiens, read-out: Log TGI (converted)
BT-549 [1] = assay: In vitro growth inhibition against breast cancer BT 549 cell line was reported.; type: functional; details: Homo sapiens
BT-549 [2] = assay: In vitro total growth inhibition against breast cancer BT 549 cell line was reported.; type: functional; details: Homo sapiens, read-out: Log TGI (converted)
MCF7 [3] = assay: In vitro growth inhibition against breast cancer MCF 7 cell line was reported.; type: functional; details: Homo sapiens
MDA-MB-231 = assay: In vitro growth inhibition against breast cancer MDA-MB-231/ATCC cell line was reported.; type: functional; details: Homo sapiens
MDA-N = assay: In vitro growth inhibition against breast cancer MDA-N cell line was reported.; type: functional; details: Homo sapiens
NCI/ADR-RES = assay: In vitro growth inhibition against breast cancer NCI/ADR-RES cell line was reported.; type: functional; details: Homo sapiens
COLO 205 = assay: In vitro total growth inhibition against colon cancer COLO 205 cell lines was reported.; type: functional; details: Homo sapiens, read-out: Log TGI (converted)
HCT-116 [4] = assay: In vitro growth inhibition against colon cancer HCT116 cell line was reported.; type: functional; details: Homo sapiens
HCT-116 [5] = assay: In vitro total growth inhibition against colon cancer HCT116 cell lines was reported.; type: functional; details: Homo sapiens, read-out: Log TGI (converted)
SF-295 [6] = assay: In vitro growth inhibition against CNS cancer SF-295 cell line was reported.; type: functional; details: Homo sapiens
SF-295 [7] = assay: Log of molar concentration leading to 50% cell death against CNS cancer SF-295 cell line was reported; type: functional; details: Homo sapiens, read-out: Log LC50 (the source's name) (converted)
SF-539 [8] = assay: In vitro growth inhibition against CNS cancer SF-539 cell line was reported.; type: functional; details: Homo sapiens
SF-539 [9] = assay: Log of molar concentration leading to 50% cell death against CNS cancer SF-539 cell line was reported; type: functional; details: Homo sapiens, read-out: Log LC50 (the source's name) (converted)
SNB-19 = assay: In vitro growth inhibition against CNS cancer SNB-19 cell line was reported.; type: functional; details: Homo sapiens
U-251 [10] = assay: In vitro growth inhibition against CNS cancer U251 cell line was reported.; type: functional; details: Homo sapiens
U-251 [11] = assay: In vitro total growth inhibition against CNS cancer U251 cell lines was reported.; type: functional; details: Homo sapiens, read-out: Log TGI (converted)
KM12 [12] = assay: In vitro total growth inhibition against colon cancer KM12 cell lines was reported.; type: functional; details: Homo sapiens, read-out: Log TGI (converted)
K562 = assay: In vitro growth inhibition against leukemia K-562 cell line was reported.; type: functional; details: Homo sapiens
CCRF-CEM = assay: In vitro growth inhibition against leukemia CCRF-CEM cell line was reported.; type: functional; details: Homo sapiens
RPMI-8226 [13] = assay: In vitro total growth inhibition against leukemia […] cell lines was reported.; type: functional; details: Homo sapiens, read-out: Log TGI (converted)
SR = assay: In vitro growth inhibition against leukemia SR cell line was reported.; type: functional; details: Homo sapiens
M14 [14] = assay: In vitro growth inhibition against melanoma M14 cell line was reported.; type: functional; details: Homo sapiens
Malme-3M = assay: In vitro growth inhibition against melanoma MALME 3M cell line was reported.; type: functional; details: Homo sapiens
UACC-257 [15] = assay: In vitro total growth inhibition against melanoma UACC-257 cell line was reported.; type: functional; details: Homo sapiens
HOP-62 = assay: Log of molar concentration leading to 50% cell death against non-small-cell lung cancer HOP-62 cell line was reported; type: functional; details: Homo sapiens, read-out: Log LC50 (the source's name) (converted)
NCI-H46 = assay: Log of molar concentration leading to 50% cell death against non-small-cell lung cancer […] cell line was reported; type: functional; details: Homo sapiens, read-out: Log LC50 (the source's name) (converted)
NCI-H522 [16] = assay: Log of molar concentration leading to 50% cell death against non-small-cell lung cancer NCI-522 cell line was reported; type: functional; details: Homo sapiens, read-out: Log LC50 (the source's name) (converted)
NCI-H522 [17] = assay: In vitro total growth inhibition against non-small-cell lung cancer NCI-522 cell lines was reported.; type: functional; details: Homo sapiens, read-out: Log TGI (converted)
NCI-H23 [18] = assay: In vitro total growth inhibition against non-small-cell lung cancer NCI-H23 cell lines was reported.; type: functional; details: Homo sapiens, read-out: Log TGI (converted)
NCI-H322M [19] = assay: In vitro total growth inhibition against non-small-cell lung cancer NCI-H322M cell lines was reported.; type: functional; details: Homo sapiens, read-out: Log TGI (converted)
OVCAR-4 = assay: In vitro total growth inhibition against ovarian cancer OVCAR-4 cell lines was reported.; type: functional; details: Homo sapiens, read-out: Log TGI (converted)
OVCAR-5 = assay: In vitro growth inhibition against ovarian cancer OVCAR-5 cell line was reported.; type: functional; details: Homo sapiens
DU-145 = assay: In vitro total growth inhibition against prostate cancer […] cell lines was reported.; type: functional; details: Homo sapiens, read-out: Log TGI (converted)
ACHN = assay: In vitro total growth inhibition against renal cancer ACHN cell lines was reported.; type: functional; details: Homo sapiens, read-out: Log TGI (converted)
CAKI-1 = assay: In vitro total growth inhibition against renal cancer CAKI-1cell lines was reported.; type: functional; details: Homo sapiens, read-out: Log TGI (converted)
786-0 [20] = assay: In vitro growth inhibition against renal cancer […] cell line was reported.; type: functional; details: Homo sapiens
786-0 [21] = assay: In vitro total growth inhibition against renal cancer […] cell lines was reported.; type: functional; details: Homo sapiens, read-out: Log TGI (converted)
A498 = assay: In vitro growth inhibition against renal cancer A498 cell line was reported.; type: functional; details: Homo sapiens
RPMI-8226 [22] = assay: Log of molar concentration leading to 50% cell death against leukemia […] cell line was reported; type: functional; details: Homo sapiens, read-out: Log LC50 (the source's name) (converted)
KM12 [23] = assay: Log of molar concentration leading to 50% cell death against colon cancer KM12 cell line was reported; type: functional; details: Homo sapiens, read-out: Log LC50 (the source's name) (converted)
MCF7 [24] = assay: Log of molar concentration leading to 50% cell death against breast cancer MCF 7 cell line was reported; type: functional; details: Homo sapiens, read-out: Log LC50 (the source's name) (converted)
M14 [25] = assay: In vitro total growth inhibition against melanoma M14 cell lines was reported.; type: functional; details: Homo sapiens, read-out: Log TGI (converted)
SK-MEL-2 = assay: Log of molar concentration leading to 50% cell death against melanoma SK-MEL-2 cell line was reported; type: functional; details: Homo sapiens, read-out: Log LC50 (the source's name) (converted)
SK-MEL-28 [26] = assay: Log of molar concentration leading to 50% cell death against melanoma SK-MEL-28 cell line was reported; type: functional; details: Homo sapiens, read-out: Log LC50 (the source's name) (converted)
SK-MEL-28 [27] = assay: In vitro total growth inhibition against melanoma SK-MEL-28 cell lines was reported.; type: functional; details: Homo sapiens, read-out: Log TGI (converted)
SK-MEL-5 = assay: In vitro total growth inhibition against melanoma SK-MEL-5 cell lines was reported.; type: functional; details: Homo sapiens, read-out: Log TGI (converted)
UACC-257 [28] = assay: Log of molar concentration leading to 50% cell death against melanoma UACC-257 cell line was reported; type: functional; details: Homo sapiens, read-out: Log LC50 (the source's name) (converted)
PC-3 [29] = assay: Log of molar concentration leading to 50% cell death against prostate cancer PC-3 cell line was reported; type: functional; details: Homo sapiens, read-out: Log LC50 (the source's name) (converted)
UACC-257 [30] = assay: In vitro total growth inhibition against melanoma UACC-257 cell lines was reported.; type: functional; details: Homo sapiens, read-out: Log TGI (converted)
IGROV-1 [31] = assay: Log of molar concentration leading to 50% cell death against ovarian cancer IGROV1 cell line was reported; type: functional; details: Homo sapiens, read-out: Log LC50 (the source's name) (converted)
A549 = assay: In vitro growth inhibition against non-small-cell lung cancer A 549/ATCC cell line was reported.; type: functional; details: Homo sapiens
NCI-H522 [32] = assay: In vitro growth inhibition against non-small-cell lung cancer […] cell line was reported.; type: functional; details: Homo sapiens
NCI-H23 [33] = assay: In vitro growth inhibition against non-small-cell lung cancer NCI-H23 cell line was reported.; type: functional; details: Homo sapiens
NCI-H322M [34] = assay: In vitro growth inhibition against non-small-cell lung cancer […] cell line was reported.; type: functional; details: Homo sapiens
RXF 393 = assay: Log of molar concentration leading to 50% cell death against renal cancer RXF 393 cell line was reported; type: functional; details: Homo sapiens, read-out: Log LC50 (the source's name) (converted)
UACC-62 = assay: Log of molar concentration leading to 50% cell death against melanoma UACC-62 cell line was reported; type: functional; details: Homo sapiens, read-out: Log LC50 (the source's name) (converted)
IGROV-1 [35] = assay: In vitro growth inhibition against ovarian cancer IGROV1 cell line was reported.; type: functional; details: Homo sapiens
PC-3 [36] = assay: In vitro growth inhibition against prostate cancer PC-3 cell line was reported.; type: functional; details: Homo sapiens
MDA-MB-435 = assay: In vitro total growth inhibition against breast cancer MDA-MB-435 cell lines was reported.; details: Homo sapiens, read-out: Log TGI (converted)

`O=C(Nc1nccs1)c1cc2c(cc1Cl)Sc1nccn1S2(=O)=O` was tested, and the TGI (T47D) was 64.6 µM, the GI50 (BT-549 [1]) was 18.2 µM and the TGI (BT-549 [2]) was 35.5 µM. For the same molecule, the GI50 (MCF7 [3]) was 6.76 µM, the GI50 (MDA-MB-231) was 19.5 µM and the GI50 (MDA-N) was 17.8 µM. For the same molecule, the GI50 (NCI/ADR-RES) was 19.1 µM, the TGI (COLO 205) was 30.9 µM and the GI50 (HCT-116 [4]) was 16.2 µM. For the same molecule, the TGI (HCT-116 [5]) was 29.5 µM, the GI50 (SF-295 [6]) was 18.2 µM and the CC50 (SF-295 [7]) was 64.6 µM. The GI50 (SF-539 [8]) was 19.5 µM, the CC50 (SF-539 [9]) was 72.4 µM and the GI50 (SNB-19) was 19.1 µM. It also gave a GI50 (U-251 [10]) of 17.4 µM, a TGI (U-251 [11]) of 30.9 µM and a TGI (KM12 [12]) of 26.3 µM. For the same molecule, the GI50 (K562) was 15.8 µM, the GI50 (CCRF-CEM) was 5.01 µM and the TGI (RPMI-8226 [13]) was 23.4 µM. The GI50 (SR) was 3.02 µM, the GI50 (M14 [14]) was 17.8 µM and the GI50 (Malme-3M) was 20 µM. It also gave a GI50 (UACC-257 [15]) of 13.8 µM, a CC50 (HOP-62) of 61.7 µM and a CC50 (NCI-H46) of 55 µM. It also gave a CC50 (NCI-H522 [16]) of 6.61 µM, a TGI (NCI-H522 [17]) of 2.82 µM and a TGI (NCI-H23 [18]) of 33.9 µM. It also gave a TGI (NCI-H322M [19]) of 33.9 µM, a TGI (OVCAR-4) of 38.9 µM and a GI50 (OVCAR-5) of 21.9 µM. For the same molecule, the TGI (DU-145) was 30.2 µM, the TGI (ACHN) was 32.4 µM and the TGI (CAKI-1) was 37.2 µM. The GI50 (786-0 [20]) was 15.8 µM, the TGI (786-0 [21]) was 29.5 µM and the GI50 (A498) was 19.1 µM. It also gave a CC50 (RPMI-8226 [22]) of 57.5 µM, a CC50 (KM12 [23]) of 57.5 µM and a CC50 (MCF7 [24]) of 44.7 µM. It also gave a TGI (M14 [25]) of 34.7 µM, a CC50 (SK-MEL-2) of 63.1 µM and a CC50 (SK-MEL-28 [26]) of 70.8 µM. It also gave a TGI (SK-MEL-28 [27]) of 38 µM, a TGI (SK-MEL-5) of 30.2 µM and a CC50 (UACC-257 [28]) of 52.5 µM. It also gave a CC50 (PC-3 [29]) of 66.1 µM, a TGI (UACC-257 [30]) of 26.9 µM and a CC50 (IGROV-1 [31]) of 75.9 µM. It also gave a GI50 (A549) of 24 µM, a GI50 (NCI-H522 [32]) of 1.23 µM and a GI50 (NCI-H23 [33]) of 17 µM. For the same molecule, the GI50 (NCI-H322M [34]) was 17.4 µM, the CC50 (RXF 393) was 83.2 µM and the CC50 (UACC-62) was 52.5 µM. For the same molecule, the GI50 (IGROV-1 [35]) was 11.7 µM, the GI50 (PC-3 [36]) was 17 µM and the TGI (MDA-MB-435) was 31.6 µM.
